Test results reported in patent US8124111B2, “Immunomodulation by altering sphingosine 1-phosphate lyase (SPL) activity” (Children's Hospital & Research Center at Oakland, priority 2005, dated 2012).

Key:
[1] = system: human SPL luciferase reporter construct; test: SPL gene expression, human SPL luciferase reporter in HEK293 cells; type: cell-based; settings: 0.3 μM or 3.0 μM, 24 hours
Protocol: (§1) (A) SPL gene expression. HEK293 cells were co-transfected with a human SPL luciferase reporter construct and the sea pansy luciferase reporter as a control for transfection efficiency. Twenty-four hours after transfection, cells were treated with 0.3 μM FTY720, 3.0 μM FTY720 or vehicle and incubated for another 24 hours at 37° C. Luciferase activity was then determined as a measure of expression, as described in Experimental Methods. Values shown are luciferase activity normalized to sea pansy luciferase; (B) SPL protein expression. Thymic extracts from control mice (time 0) and mice treated with FTY720 for 24 hours were evaluated for SPL protein expression by immunoblotting. Actin was used as a loading control.
(§2) SPL expression: To evaluate the effect of FTY720 and FTY720-P on SPL gene expression, HEK293 cells were treated for 30 minutes with 3 μM of either drug, followed by transfection with pSPL-BamHI, a human SPL-luciferase reporter construct. After 48 hours, reporter expression was determined by luciferase activity as described (Oskouian et al., (2005) J Biol Chem 280, 18403-18410)). Western blotting of mouse tissue extracts was performed using a 1:2000 dilution of polyclonal sera raised against the murine SPL C-terminal peptide: (NH2)—V-T-Q-G-N-Q-M-N-G-S—P—K—P—R—(COOH). [SEQ ID NO:11] […]

S1P = S1P measurements in murine tissue after FTY720 treatment; type: in vivo
Protocol: (§3) Drug treatments and leukocyte/lymphocyte counts: Four-week old FVB or C3H mice were obtained from Charles River Laboratories (Wilmington, Mass.). Animals were maintained in a pathogen-free facility in microisolator cages. Mice were anaesthetized with isoflurane inhalation, and a single dose of FTY720 (at 1 or 3 mg/kg) or GT11 (at 1, 10 or 100 mg/kg) in sterile water was injected intraperitoneally at time zero. Blood counts were determined by Coulter counter (Coulter Instruments, Hialeah, Fla.) and by manual differential counting. Mice were euthanized by CO2 inhalation at various time points post-injection, followed by tissue harvest. All animal studies were performed in accordance with approved CHORI IACUC protocols.
S1P measurements: S1P was isolated by two-phase lipid extraction, derivatized with OPA and quantitated by HPLC essentially as described (Jiang et al, (2004) Proc Natl Acad Sci USA 101, 17825-17830; Fyrst et al., (2004) J Lipid Res 45, 54-62; Caligan et al., (2000) Anal. Biochem. 281, 36-44). All tissues were weighed prior to snap freezing in liquid nitrogen and were stored at −100° C. until processing. One nanomole of C17-S1P and PSo were added as internal standards before homogenization of tissues. Lipids were extracted with 1 ml mixture of chloroform and methanol (1:2 ratio). Samples were incubated at room temperature with sonication for 3 hours and then dried by speed vac. One ml of 0.1N NaOH in methanol was added for 1 hour at 37° C. to achieve hydrolysis. After addition of 4 ml chloroform and 4 ml 1M KCl, samples were mixed and phases separated by centrifugation. The organic phase was collected and dried for sphingosine determination. The aqueous phase was mixed with 300 μl concentrated HCl and 6 ml chloroform. The phases were separated by centrifugation, and the organic phase was collected and dried for S1P determination. All samples for S1P determination were re-dissolved in methanol. After derivation with OPA, samples were injected onto HPLC for quantification. The mobile phase was methanol:10 mM phosphate buffer (pH 7.2):1M tetrabutylammonium dihydrogen phosphate (TBAP) in water=83:16:1, v/v/v and the flow rate was 1 ml/min.
FTY720 administration minimally affects tissue SIP levels—SK is known to be responsible for S1P synthesis, whereas SPL and S1P phosphatases are responsible for S1P catabolism. Since FTY720 interacts with both SK and SPL and may potentially influence the efficiency of both S1P synthesis and degradation, the sum effect of FTY270 administration on tissue S1P levels was determined. FTY720 treatment was associated with a slight increase in thymic tissue S1P at 36 hours, followed by a return to baseline levels by 48 hours (Table 2). […] S1P levels increased somewhat more dramatically in splenic tissue after FTY720 treatment (Table 2). […] According to non-limiting theory, simultaneous inhibition of SPL may account for the stability of tissue S1P levels in response to drug treatment.

Lymphocytes = test: Lymphocyte counts after FTY720 treatment; type: in vivo, mice
Protocol: as §3
Inhibition of SPL by FTY720 in vivo—The effect on SPL enzyme activity of FTY720 administration was tested. Four-week old female FVB mice were given 1 mg/kg FTY720 by intraperitoneal injection, and tissue SPL activity in thymus was assessed over time. […] SPL inhibition occurred concomitantly with lymphopenia, and was consistent with the timing of lymphopenia reported previously (Chiba et al., (1998) J Immunol 160, 5037-5044) (Table 1).

SPL protein expression = SPL protein expression in thymic extracts by immunoblotting; type: in vivo; settings: mice treated for 24 hours
Protocol: as §1, §2

[2] = single dose administration; cited from earlier work

CCCCCCCCc1ccc(CCC(N)(CO)CO)cc1 [FTY720]
SPL gene expression (luciferase activity normalized to sea pansy luciferase) [1]: not affected | S1P (spleen) (S1P; 24 hours after FTY720): 15121.31 picomoles per gram of wet weight tissue | S1P (spleen) (S1P; 36 hours after FTY720): 18482.30 picomoles per gram of wet weight tissue | S1P (spleen) (S1P; 48 hours after FTY720): 12365.84 picomoles per gram of wet weight tissue | Dihydrosphingosine-1-P (DHS1P) tissue levels (S1P; throughout 48 hours of treatment): remained stable | S1P (thymus) (S1P; 24 hours after FTY720): 3000.69 picomoles per gram of wet weight tissue | S1P (thymus) (S1P; 36 hours after FTY720): 3917.48 picomoles per gram of wet weight tissue | S1P (thymus) (S1P; 48 hours after FTY720): 3194.45 picomoles per gram of wet weight tissue | Lymphocytes (Lymphocytes; 24 hours after FTY720): 2.2 1000/μL | Lymphocytes (Lymphocytes; 48 hours after FTY720): 3.2 1000/μL | Lymphocytes (Lymphocytes; 72 hours after FTY720): 2.0 1000/μL | SPL protein expression (immunoblotting) (SPL protein expression): not affected | elimination half-life [2]: long
